Experimental data: ChEMBL document CHEMBL1127066, “Discovery and structure-activity relationship of a series of 1-carba-1-dethiacephems exhibiting activity against methicillin-resistant Staphylococcus aureus” (J Med Chem, 1993)

Experiments:
Assay type in all cases: functional
[1] = system: Pseudomonas aeruginosa; test: In vitro antimicrobial activity against Pseudomonas X239 strain
[2] = system: Escherichia coli; test: In vitro evaluation of antimicrobial activity against Escherichia coli EC14 strain
[3] = system: Pseudomonas aeruginosa; test: Antimicrobial activity against Pseudomonas PS18 strain
[4] = system: Haemophilus influenzae; test: In vitro antimicrobial activity against Haemophilus influenzae C.L. strain
[5] = system: Staphylococcus epidermidis; test: In vitro antimicrobial activity against Staphylococcus epidermidis 270 strain
[6] = system: Klebsiella; test: In vitro antimicrobial activity against Klebsiella X26 strain
[7] = system: Staphylococcus aureus; test: In vitro antimicrobial activity against Staphylococcus aureus S13E strain
[8] = system: Staphylococcus aureus; test: In vitro antimicrobial activity against Staphylococcus aureus X400 strain
[9] = system: Streptococcus pneumoniae; test: In vitro antimicrobial activity against Streptococcus pneumoniae PARK strain
[10] = system: Staphylococcus aureus; test: In vitro antimicrobial activity against Staphylococcus aureus X1.1 strain
[11] = system: Staphylococcus epidermidis; test: In vitro antimicrobial activity against Staphylococcus epidermidis 222 strain
[12] = system: Enterobacter cloacae; test: In vitro evaluation of antimicrobial activity against Enterobacter cloacae EB5 strain

Compound	MIC [1]	MIC [2]	MIC [3]	MIC [4]	MIC [5]	MIC [6]	MIC [7]	MIC [8]	MIC [9]	MIC [10]	MIC [11]	MIC [12]
Nc1nc(/C(=N\OCCF)C(=O)N[C@@H]2C(=O)N3C(C(=O)[O-])=C(Sc4ncccn4)CC[C@H]23)cs1.[Na+]	> 128 µg/mL	0.125 µg/mL	> 128 µg/mL	0.03 µg/mL	8 µg/mL	0.015 µg/mL	32 µg/mL	128 µg/mL	0.03 µg/mL	2 µg/mL	4 µg/mL	1 µg/mL
Cn1c(SC2=C(C(=O)[O-])N3C(=O)[C@@H](NC(=O)/C(=N/OCCF)c4csc(N)n4)[C@H]3CC2)n[nH]c(=O)c1=O.[Na+]	32 µg/mL	0.06 µg/mL	32 µg/mL	0.03 µg/mL	8 µg/mL	0.06 µg/mL	64 µg/mL	128 µg/mL	0.015 µg/mL	0.5 µg/mL	2 µg/mL	0.5 µg/mL
Nc1ccc2nc(SC3=C(C(=O)[O-])N4C(=O)[C@@H](NC(=O)/C(=N/OCCF)c5csc(N)n5)[C@H]4CC3)sc2c1.[Na+]	> 128 µg/mL	0.25 µg/mL	128 µg/mL	0.03 µg/mL	1 µg/mL	0.03 µg/mL	4 µg/mL	16 µg/mL	< 0.008 µg/mL	0.25 µg/mL	1 µg/mL	2 µg/mL
Cn1nnnc1SC1=C(C(=O)[O-])N2C(=O)[C@@H](NC(=O)/C(=N/OCCF)c3csc(N)n3)[C@H]2CC1.[Na+]	16 µg/mL	0.06 µg/mL	> 128 µg/mL	0.015 µg/mL	4 µg/mL	< 0.008 µg/mL	128 µg/mL	> 128 µg/mL	0.015 µg/mL	0.5 µg/mL	2 µg/mL	0.5 µg/mL
Nc1nc(/C(=N\OCCF)C(=O)N[C@@H]2C(=O)N3C(C(=O)[O-])=C(Sc4nnc(O)c(O)n4)CC[C@H]23)cs1.[Na+]	> 128 µg/mL	0.06 µg/mL	> 128 µg/mL	0.03 µg/mL	32 µg/mL	0.06 µg/mL	–	> 128 µg/mL	0.06 µg/mL	4 µg/mL	8 µg/mL	0.5 µg/mL
Nc1nc(/C(=N\OCCF)C(=O)N[C@@H]2C(=O)N3C(C(=O)[O-])=C(Sc4nc(C(=O)OCc5ccccc5)cs4)CC[C@H]23)cs1.[Na+]	128 µg/mL	0.25 µg/mL	64 µg/mL	0.03 µg/mL	2 µg/mL	0.015 µg/mL	8 µg/mL	32 µg/mL	< 0.008 µg/mL	0.25 µg/mL	0.5 µg/mL	2 µg/mL
Nc1nc(/C(=N\OCCF)C(=O)N[C@@H]2C(=O)N3C(C(=O)[O-])=C(Sc4nc5cc(Cl)ccc5s4)CC[C@H]23)cs1.[Na+]	> 128 µg/mL	0.25 µg/mL	64 µg/mL	0.06 µg/mL	0.5 µg/mL	0.06 µg/mL	4 µg/mL	8 µg/mL	< 0.008 µg/mL	0.125 µg/mL	0.5 µg/mL	2 µg/mL
Cn1ccnc1SC1=C(C(=O)[O-])N2C(=O)[C@@H](NC(=O)/C(=N/OCCF)c3csc(N)n3)[C@H]2CC1.[Na+]	> 128 µg/mL	0.5 µg/mL	> 128 µg/mL	0.03 µg/mL	32 µg/mL	0.06 µg/mL	–	> 128 µg/mL	< 0.008 µg/mL	4 µg/mL	8 µg/mL	4 µg/mL
Nc1nc(/C(=N\OCCF)C(=O)N[C@@H]2C(=O)N3C(C(=O)[O-])=C(SC4=NCCS4)CC[C@H]23)cs1.[Na+]	< 128 µg/mL	0.125 µg/mL	64 µg/mL	< 0.008 µg/mL	2 µg/mL	0.015 µg/mL	16 µg/mL	64 µg/mL	< 0.008 µg/mL	0.5 µg/mL	1 µg/mL	1 µg/mL
Nc1nc(/C(=N\OCCF)C(=O)N[C@@H]2C(=O)N3C(C(=O)[O-])=C(Sc4nc5cccnc5s4)CC[C@H]23)cs1.[Na+]	> 128 µg/mL	0.25 µg/mL	64 µg/mL	0.03 µg/mL	4 µg/mL	0.03 µg/mL	8 µg/mL	16 µg/mL	< 0.008 µg/mL	0.25 µg/mL	1 µg/mL	2 µg/mL
CCOc1ccc2nc(SC3=C(C(=O)[O-])N4C(=O)[C@@H](NC(=O)/C(=N/OCCF)c5csc(N)n5)[C@H]4CC3)sc2c1.[Na+]	> 128 µg/mL	1 µg/mL	128 µg/mL	0.125 µg/mL	0.5 µg/mL	0.06 µg/mL	8 µg/mL	8 µg/mL	< 0.008 µg/mL	0.25 µg/mL	1 µg/mL	4 µg/mL
